According to patent US20260055081A1, “Metal Chelator Compounds, Coordination Complexes, and Methods of Preparation and Use Thereof” (University of Puerto Rico, priority 2022, published 2026):

Columns and labels:
[1] = tested on: NCI 60 human tumor cell lines; experiment: NCI 60 cancer cell line screen, all cell lines tested; format: cell-based; conditions: 48 h
Procedure: National Cancer Institute Cancer Cell Line (NCI 60) Screen of DefNEtTrp. Details of the methodology for NCI 60 cell line screening are described at http://dtp.nci.nih.gov/branches/btb/ivclsp.html. The cells, grown in supplemented RPMI-1640 medium, are seeded in 96 well plates at an appropriate density and incubated for 24 h. The test compounds are dissolved in DMSO and incubated with cells at a single dose of 10.0 μM for 48 h. The assay is terminated by addition of cold trichloroacetic acid, and the cells are fixed and stained with sulforhodamine B. Bound stain is solubilized, and the absorbance is read on an automated plate reader. […] Using the seven absorbance measurements [time zero, […], control growth, (C), and test growth in the presence of drug at the five concentration levels (Tf)], the percentage growth was calculated at each of the drug concentrations levels as: [(Tf−Ti)/(C−Ti)]×100 for concentrations for which Tf≥Ti and [(Tf−Ti)/Ti]×100 for concentrations for which Tf<Ti. Three-dose response parameters (GI50, TGI, and LC50) were calculated for each of the experimental agents in five dose assay. Growth inhibition of 50% (GI50) was calculated from 100×[(Tf−Ti)/(C−Ti)]=50, which was the drug concentration resulting in a 50% reduction in the net protein increase (as measured by sulforhodamine B, SRB staining) in control cells during the drug incubation. The total growth inhibition (TGI) was calculated from Tf=Ti, which was the drug concentration resulting in total growth inhibition and signified the cytostatic effect. The 50% cellular death (LC50) was calculated from 100×[(Tf−Ti)/Ti]=−50, indicating a net loss of cells following treatment which indicated the concentration of drug resulting in a 50% reduction in the measured protein at the end of the drug treatment as compared to that at the beginning. […] Log GI50, log TGI, and log LC50 are the logarithm molar concentrations producing 50% growth inhibition (GI50), a total growth inhibition (TGI), and a 50% cellular death (LC50), respectively.

[2] = tested on: Prostate cancer cell lines; experiment: NCI 60 five-dose screen, prostate panel; format: cell-based, human; conditions: 48 h
Procedure: National Cancer Institute Cancer Cell Line (NCI 60) Screen of DefNEtTrp. Details of the methodology for NCI 60 cell line screening are described at http://dtp.nci.nih.gov/branches/btb/ivclsp.html. The cells, grown in supplemented RPMI-1640 medium, are seeded in 96 well plates at an appropriate density and incubated for 24 h. The test compounds are dissolved in DMSO and incubated with cells at a single dose of 10.0 μM for 48 h. The assay is terminated by addition of cold trichloroacetic acid, and the cells are fixed and stained with sulforhodamine B. Bound stain is solubilized, and the absorbance is read on an automated plate reader. […] Using the seven absorbance measurements [time zero, […], control growth, (C), and test growth in the presence of drug at the five concentration levels (Tf)], the percentage growth was calculated at each of the drug concentrations levels as: [(Tf−Ti)/(C−Ti)]×100 for concentrations for which Tf≥Ti and [(Tf−Ti)/Ti]×100 for concentrations for which Tf<Ti. Three-dose response parameters (GI50, TGI, and LC50) were calculated for each of the experimental agents in five dose assay. […] The total growth inhibition (TGI) was calculated from Tf=Ti, which was the drug concentration resulting in total growth inhibition and signified the cytostatic effect. […]

[3] = tested on: red blood cells; experiment: CO-ADD hemolysis assay; format: cell-based, human; conditions: up to a concentration of 50.3 μM; human red blood cells, 1 h at 37° C.
Procedure: CO-ADD hemolysis assay. Dry compounds ranging from 1-2 mg were delivered to the CO-ADD. The compounds were solubilized to a stock concentration of 10 mg/mL in DMSO. Samples were serially diluted 1:2 fold in water to final testing concentrations of […] while keeping the final DMSO concentration to a maximum of 0.32% (v/v). Each sample concentration was prepared in polypropylene 384-well plates (Corning 3657) for hemolysis assays, all in two duplicate plates (n=2). All sample preparation was conducted using liquid handling robots. Human whole blood (Australian Red Cross) was washed three times with three volumes of 0.9% NaCl (w/v) and resuspended in a concentration of […], determined by manual cell count in a Neubauer hemocytometer. Washed cells were added to the compound-containing plates for a final volume of 50 μL. After a 10 min shake on a plate shaker the plates were then incubated for 1 h at 37° C. After incubation, the plates were centrifuged at 1000 g for 10 min to pellet cells and debris, 25 μL of the supernatant was then transferred to reading plates (384 well, polystyrene plated (PS), Corning CLS3680), with hemolysis determined by measuring the supernatant absorbance at […] (OD405) using a Tecan M1000 Pro monochromator plate reader. HC10 and HC50 (concentration at 10% and 50% hemolysis, respectively) were calculated by curve fitting the inhibition values vs. log(concentration) using a sigmoidal dose-response function with variable fitting values for the top, bottom, and slope. The maximal percentage of hemolysis is reported as Dmax. Hemolysis samples are classified by HC10≤32 μg/mL. […] Melittin was used in 8 concentrations in 2-fold serial dilutions with 50 µg/mL being the highest concentration.

[4] = target: T1, Fe(III)-saturated serum transferrin (Fe2-sTf) (Homo sapiens, UniProt P02787); experiment: Scavenging of Fe(III) from Fe(III)-saturated serum transferrin; format: biochemical; conditions: 22.5 μM Fe2-sTf with 45 μM DefNEtTrp, pH 7.4, 25° C., monitored over 3 days
T1 construct: purchased Sigma T2036
Procedure: The ability of DefNEtTrp to scavenge Fe(ITT) from Fe(ITI)-saturated serum transferrin(Fe2-sTf) was also examined. Fe2-sTf was prepared by reacting micromolar amounts of apo-sTf with 4 mol equiv of in situ prepared [Fe(citrate)2]^5− in 20 mM Hepes buffer (pH 7.4) containing 0.1 M NaCl and 27 mM NaHCO3. The sample was extensively dialyzed by rapid spin dialysis to remove the excess unbound Fe(III). The Fe(III) content was determined by the ferrozine colorimetric assay modified from a literature protocol and by monitoring the Fe2-STf-(CO3)2 LMCT band (λmax 465 nm; ε=5200 M^−1 cm^−1) (Viollier 2000, The ferrozine method revisited: Fe(II)/Fe(III) determination in natural waters. Appl. Geochem. 15 (6): 785-790). To 22.5 μM Fe2-sTf was reacted 45 μM DefNEtTrp (diluted in the same protein buffer while maintaining 5% DMF) in quadruplicate at 25° C. The reaction solutions were left to equilibrate and the LMCT absorbance was monitored after 24 h and 72 h. The reaction solutions were extensively dialyzed and then the protein concentrations were quantified by the Bradford colorimetric assay. The UV-Vis spectra of the washed protein samples were collected.

T1 sequence (P02787 20-698): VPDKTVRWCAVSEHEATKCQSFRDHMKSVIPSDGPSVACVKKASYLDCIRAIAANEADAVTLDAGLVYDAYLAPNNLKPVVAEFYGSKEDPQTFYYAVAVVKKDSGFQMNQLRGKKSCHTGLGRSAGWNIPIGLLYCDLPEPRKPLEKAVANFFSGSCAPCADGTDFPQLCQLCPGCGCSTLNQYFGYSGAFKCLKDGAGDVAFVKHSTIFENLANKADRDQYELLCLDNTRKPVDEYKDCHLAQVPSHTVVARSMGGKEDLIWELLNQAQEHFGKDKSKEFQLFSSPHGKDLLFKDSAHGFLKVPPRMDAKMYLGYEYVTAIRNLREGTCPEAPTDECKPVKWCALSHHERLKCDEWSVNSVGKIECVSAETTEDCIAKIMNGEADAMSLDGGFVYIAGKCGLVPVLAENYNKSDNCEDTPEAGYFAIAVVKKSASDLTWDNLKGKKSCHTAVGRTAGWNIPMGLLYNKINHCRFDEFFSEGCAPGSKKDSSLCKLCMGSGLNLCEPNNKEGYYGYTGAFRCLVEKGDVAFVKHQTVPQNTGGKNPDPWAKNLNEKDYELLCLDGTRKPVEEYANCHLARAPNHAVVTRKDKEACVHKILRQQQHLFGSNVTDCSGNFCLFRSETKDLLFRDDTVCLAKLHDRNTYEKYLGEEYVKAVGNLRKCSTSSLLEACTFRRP

## Nc1cccnc1/C=N/NC(=S)NCCNC(=O)c1ccc(-n2nc(-c3ccccc3O)nc2-c2ccccc2O)cc1 [DefNEtTrp, deferasirox nitrogen ethyl triapine]
[1]; Homo sapiens, five-dose assay, average over all cell lines, read-out: average GI50 concentration, all cell lines
  GI50: 1200 nM
[1]; Homo sapiens, five-dose assay, average over cell lines with 50% cell death
  LC50: 38.9 µM
[1]; five-dose assay
  share of cell lines tested with total cell growth inhibition: 77%
  share of tested cell lines with 50% cell death: 14%
[1]; five-dose assay, average over cell lines in which TGI was observed
  average TGI concentration: 8.5 µM
[1]; one-dose test of 10 μM
  antiproliferative activity in one-dose test: very promising broad spectrum antiproliferative activity
[2]; cell lines in which TGI was observed
  TGI (calculated average): 18.2 µM
[2]; Homo sapiens, read-out: GI50 (calculated average)
  GI50: 1140 nM
[3]
  hemolysis: ~5%
[4]
  removal of Fe(III) from Fe2-sTf (LMCT absorbance 465 nm): no metal dissociation
